Results as given in ChEMBL document CHEMBL1909046, “DrugMatrix in vitro pharmacology data”.

Assays:
[1] = molecular target: T1, Alpha-1D adrenergic receptor (Homo sapiens, UniProt P25100); type: cell membranes, HEK293, Membrane; conditions: hek293; further: in other assays of this panel Not Active means under 50% inhibition at 10 µM
T1 sequence (P25100 whole entry): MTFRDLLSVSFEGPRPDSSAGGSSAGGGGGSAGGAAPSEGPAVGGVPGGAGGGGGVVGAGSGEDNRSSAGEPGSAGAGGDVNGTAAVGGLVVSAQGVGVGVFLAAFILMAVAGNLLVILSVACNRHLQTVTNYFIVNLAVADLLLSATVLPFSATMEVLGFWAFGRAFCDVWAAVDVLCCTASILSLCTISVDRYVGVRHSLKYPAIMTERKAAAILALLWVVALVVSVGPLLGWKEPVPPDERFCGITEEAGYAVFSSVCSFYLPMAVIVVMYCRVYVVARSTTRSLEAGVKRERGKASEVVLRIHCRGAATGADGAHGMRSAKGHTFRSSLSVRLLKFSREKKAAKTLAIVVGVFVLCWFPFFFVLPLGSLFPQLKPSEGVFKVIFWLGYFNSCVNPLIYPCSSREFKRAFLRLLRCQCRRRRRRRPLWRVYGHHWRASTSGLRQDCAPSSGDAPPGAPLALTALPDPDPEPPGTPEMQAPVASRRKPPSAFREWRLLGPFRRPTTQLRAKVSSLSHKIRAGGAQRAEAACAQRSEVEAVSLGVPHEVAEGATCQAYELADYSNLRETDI

[2] = molecular target: Beta-1 adrenergic receptor (Homo sapiens, UniProt P08588); test: DRUGMATRIX: Adrenergic beta1 radioligand binding (ligand: [125I] Cyanopindolol); type: cell membranes, CHO-K1, Membrane; conditions: cho-k1; Not Active = under 50% inhibition at 10 µM
Sequence of Beta-1 adrenergic receptor (P08588 whole entry): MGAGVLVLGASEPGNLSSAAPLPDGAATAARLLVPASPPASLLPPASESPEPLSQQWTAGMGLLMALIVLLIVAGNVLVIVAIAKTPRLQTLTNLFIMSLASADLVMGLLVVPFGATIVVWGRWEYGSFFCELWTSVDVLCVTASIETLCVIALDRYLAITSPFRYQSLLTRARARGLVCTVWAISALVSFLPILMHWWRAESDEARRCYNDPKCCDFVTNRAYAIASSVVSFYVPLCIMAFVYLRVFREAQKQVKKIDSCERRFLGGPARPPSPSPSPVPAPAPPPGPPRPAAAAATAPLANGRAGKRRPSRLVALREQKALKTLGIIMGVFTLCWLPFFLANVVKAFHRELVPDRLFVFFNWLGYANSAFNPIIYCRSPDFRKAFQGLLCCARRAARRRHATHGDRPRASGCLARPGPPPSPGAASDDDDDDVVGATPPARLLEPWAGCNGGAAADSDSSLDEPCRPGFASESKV

[3] = DRUGMATRIX: Calcium Channel Type L, Benzothiazepine radioligand binding (ligand: [3H] Diltiazem); type: cell membranes, Rattus norvegicus, Wistar, Brain, Membrane; conditions: Not Active = under 50% inhibition at 10 µM
[4] = DRUGMATRIX: Serotonin (5-Hydroxytryptamine) 5-HT3 radioligand binding (ligand: [3H] GR-65630); type: cell membranes, Membrane; conditions: hek293; Not Active = under 50% inhibition at 10 µM
[5] = molecular target: Carbonic anhydrase 2 (Homo sapiens, UniProt P00918); test: DRUGMATRIX: Carbonic Anhydrase II enzyme inhibition (substrate: 4-Nitrophenyl acetate (4-NPA)); type: tissue-based, Erythrocyte; conditions: erythrocyte; Not Active = under 50% inhibition at 10 µM
[6] = molecular target: T2, Cholecystokinin receptor type A (Homo sapiens, UniProt P32238); type: cell membranes, Membrane; conditions: 1321-n1; further: in other assays of this panel Not Active means under 50% inhibition at 10 µM
T2 sequence (P32238 whole entry): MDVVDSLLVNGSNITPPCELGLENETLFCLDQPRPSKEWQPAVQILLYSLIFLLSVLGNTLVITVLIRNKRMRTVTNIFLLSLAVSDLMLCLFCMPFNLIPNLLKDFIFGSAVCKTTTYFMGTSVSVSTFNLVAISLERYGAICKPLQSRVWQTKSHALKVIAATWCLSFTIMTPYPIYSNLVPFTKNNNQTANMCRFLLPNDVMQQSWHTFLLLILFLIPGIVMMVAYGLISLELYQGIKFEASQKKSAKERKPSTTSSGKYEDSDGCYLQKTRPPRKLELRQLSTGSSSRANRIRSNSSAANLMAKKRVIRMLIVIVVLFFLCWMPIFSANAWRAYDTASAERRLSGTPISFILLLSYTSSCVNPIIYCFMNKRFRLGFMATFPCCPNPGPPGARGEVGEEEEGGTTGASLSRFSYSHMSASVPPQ

[7] = molecular target: Melanocortin receptor 4 (Homo sapiens, UniProt P32245); type: cell membranes, Membrane; conditions: hek293; further: in other assays of this panel Not Active means under 50% inhibition at 10 µM
Sequence of Melanocortin receptor 4 (P32245 whole entry): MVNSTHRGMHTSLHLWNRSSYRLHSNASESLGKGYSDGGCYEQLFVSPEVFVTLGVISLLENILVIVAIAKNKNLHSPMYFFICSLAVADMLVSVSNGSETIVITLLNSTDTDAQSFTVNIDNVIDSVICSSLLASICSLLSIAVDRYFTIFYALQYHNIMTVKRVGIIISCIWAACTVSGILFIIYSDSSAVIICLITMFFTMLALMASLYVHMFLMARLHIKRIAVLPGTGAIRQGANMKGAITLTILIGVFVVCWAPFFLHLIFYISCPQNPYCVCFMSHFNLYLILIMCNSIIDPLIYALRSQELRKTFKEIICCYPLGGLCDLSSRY

O=c1cc(-c2ccccc2)oc2ccc3ccccc3c12 [BETA-NAPHTHOFLAVONE]
Not Active: IC50 [1] | IC50 [2] | IC50 [3] | Ki [3] | IC50 [4] | Ki [4] | IC50 [5] | IC50 [6] | IC50 [7]

CC(C)(Sc1cc(C(C)(C)C)c(O)c(C(C)(C)C)c1)Sc1cc(C(C)(C)C)c(O)c(C(C)(C)C)c1 [PROBUCOL]
Not Active: IC50 [1] | IC50 [2] | IC50 [3] | Ki [3] | IC50 [4] | Ki [4] | IC50 [5] | IC50 [6] | IC50 [7]

CO[C@@]1(NC(=O)CSCC#N)C(=O)N2C(C(=O)O)=C(CSc3nnnn3C)CS[C@@H]21 [CEFMETAZOLE]
Not Active: IC50 [1] | IC50 [2] | IC50 [3] | Ki [3] | IC50 [4] | Ki [4] | IC50 [5] | IC50 [6] | IC50 [7]

CC(=O)O[C@]1(C(C)=O)CC[C@H]2[C@@H]3C=C(C)C4=CC(=O)CC[C@]4(C)[C@H]3CC[C@@]21C [MEGESTROL ACETATE]
Not Active: IC50 [1] | IC50 [2] | IC50 [3] | Ki [3] | IC50 [4] | Ki [4] | IC50 [5] | IC50 [6] | IC50 [7]

COc1cc(CNC(=O)CCCC/C=C/C(C)C)ccc1O [CAPSAICIN]
Not Active: IC50 [1] | IC50 [2] | IC50 [3] | Ki [3] | IC50 [4] | Ki [4] | IC50 [5] | IC50 [6] | IC50 [7]

CC(C)(C)c1ccc(S(=O)(=O)/C=C/C#N)cc1 [BAY-11-7085]
Not Active: IC50 [1] | IC50 [2] | IC50 [3] | Ki [3] | IC50 [4] | Ki [4] | IC50 [5] | IC50 [6] | IC50 [7]

CC[C@H](C)C(=O)O[C@H]1C[C@@H](C)C=C2C=C[C@H](C)[C@H](CC[C@@H]3C[C@@H](O)CC(=O)O3)[C@H]21 [LOVASTATIN]
Not Active: IC50 [1] | IC50 [2] | IC50 [3] | Ki [3] | IC50 [4] | Ki [4] | IC50 [5] | IC50 [6] | IC50 [7]

O=C(c1ccccc1Cl)N1CCC(Cc2ccccc2)CC1
Not Active: IC50 [1] | IC50 [2] | IC50 [3] | Ki [3] | IC50 [4] | Ki [4] | IC50 [5] | IC50 [6] | IC50 [7]

CCOC(=O)[C@H](CCc1ccccc1)N[C@@H](C)C(=O)N1Cc2ccccc2C[C@H]1C(=O)O
Not Active: IC50 [1] | IC50 [2] | IC50 [3] | Ki [3] | IC50 [4] | Ki [4] | IC50 [5] | IC50 [6] | IC50 [7]

CC[C@H]1OC(=O)[C@H](C)[C@@H](O[C@H]2C[C@@](C)(OC)[C@@H](O)[C@H](C)O2)[C@H](C)[C@@H](O[C@@H]2O[C@H](C)C[C@H](N(C)C)[C@H]2O)[C@](C)(O)C[C@@H](C)CN(C)[C@H](C)[C@@H](O)[C@]1(C)O [AZITHROMYCIN]
Not Active: IC50 [1] | IC50 [2] | IC50 [3] | Ki [3] | IC50 [4] | Ki [4] | IC50 [5] | IC50 [6] | IC50 [7]

Cc1cccc(Nc2ccccc2C(=O)O)c1C [MEFENAMIC ACID]
Not Active: IC50 [1] | IC50 [2] | IC50 [3] | Ki [3] | IC50 [4] | Ki [4] | IC50 [5] | IC50 [6] | IC50 [7]

COC(=O)c1ccccc1O [METHYL SALICYLATE]
Not Active: IC50 [1] | IC50 [2] | IC50 [3] | Ki [3] | IC50 [4] | Ki [4] | IC50 [5] | IC50 [6] | IC50 [7]
